In patent publication US7511076B2, “Nitrosation-inducible inhibitors biological macromolecules” (New York University, priority 2000, dated 2009):

Columns and labels:
[1] = test system: Bacillus subtilis Strain IS75; assay: Bactericidal effect of ANSA derivatives on B. subtilis cultures (CFU count); assay type: cell-based; conditions: 20 μg/ml ANSA, 30 minutes, room temperature, start 10^7 CFU ml^−1, *NO and/or PTIO 20 μM where indicated; for CFU, B. subtilis, rich media: LB broth; for CFU, B. subtilis, minimal media: Spizizen's minimal media
Method: (§1) ANSA Derivatives as a New Class of Antibiotics and Antineoplastic Drugs. ANSA derivatives (shown in FIG. 9) were tested for their cytotoxic capabilities using wild type strains of Gram-negative and Gram-positive bacterial (Escherichia coil strain BL21 and Bacillus subtilis Strain IS75).

[2] = test system: Escherichia coil strain BL21 and Bacillus subtilis Strain IS75; assay: Bactericidal effect on Gram-negative and Gram-positive bacteria; assay type: cell-based, Escherichia coli; Bacillus subtilis; conditions: for Effect of the additive on the bactericidal effect of ANSA (CFU): NO trap or water solution of NO added with ANSA
Method: as §1
In order to be nitrosated, peptidyl-ANSA must undergo cleavage of the C-terminal amino acid residue to relieve the R3 NH2 group. Taking advantage of the chromogenic nature of ANSA compounds, it was possible to determine whether the peptidyl-ANSA were transported in the cell and processed by proteolysis.

[3] = target: T1, RNA polymerase from E. coli (RNAP) (Escherichia coli, UniProt P0A7Z4+P0A8T7+P0A8V2); assay: *NO-dependent RNAP inactivation assay (in vitro transcription); assay type: biochemical; conditions: for Effect on transcription by RNAP, agent alone: agent added alone (*NO low dose without ANSA; ANSA without *NO); for *NO-dependent inactivation of RNAP (transcription) in the presence of ANSA: RNAP + ANSA treated with low dose of *NO
T1 construct: made in house
Method: Transcription reactions (total volume=20 μl) were performed in a buffer containing 20 mM Tris HCL, pH 7.5, 10 mM MgCl2, 50 mM KCl, 8 μM ATP, GTP, UTP, 1.8 μM CTP, and 0,15 μM [α-^32P] CTP (3000 Ci/mmol) for 5 minutes at 37° C. RNAP was purified as described (Nudler et al, 1996). The DNA template containing the A1 promoter of phage T7 was obtained by polymerase chain reaction from the plasmid pENtR2 (Nudler et al, 1996).
Hydrophobic Amines (ANSA) as *NO-Dependent Enzyme Inhibitors. To investigate whether this mechanism might be functioning in proteins other than BSA, the effect of nitrosation on a completely distinct protein—RNA polymerase from E. coli (RNAP)—was examined. The experiments were done by exposing RNAP to a low dose of *NO, and then adding the DNA template and ribonucleotide substrates to initiate the transcription reaction. For a control, a solution of NO2^− for the *NO was substituted by oxidizing *NO prior to the experiment. […] The *NO-dependent inhibition of RNAP was complex. […] Shorter transcripts represent paused RNAP molecules resulting from the limited amount of CTP in the reaction. […] The complex inhibitory effect of nitrosation on RNAP is not surprising since many potential nitrosation targets are distributed in structurally and functionally distinct regions of the enzyme (Zhang et al, 1999).
To determine whether this process could also occur with RNAP, the mixture of RNAP+ANSA II was treated with *NO (FIG. 3, lane 4).
To further test the autocatalytic mechanism of enzyme inactivation and the key role of nitrosation-azocoupling in this process additional ANSA was synthesized and were tested in the *NO-dependent RNAP inactivation assay (FIG. 3). […] ANSA VI and ANSA VII, with methyl and peptidyl substitutions in the NH2 group, were incapable of forming aryldiazonium cation upon nitrosation. […] This experiment raises the possibility that hydrophobic amines could be used as efficient tools for the *NO-dependent inactivation of enzymes.

[4] = test system: Escherichia coil strain BL21; assay: Bactericidal effect of ANSA derivatives on E. coli cultures (CFU count); assay type: cell-based, Escherichia coli; conditions: 20 μg/ml ANSA, 30 minutes, room temperature, start 10^7 CFU ml^−1, *NO and/or PTIO 20 μM where indicated; for CFU, E. coli, rich media: LB broth; for CFU, E. coli, minimal media: M9 minimal media
Method: as §1

BSA = target: T2, BSA (Bos taurus, UniProt P02769); assay: Complex formation and nitrosation of ANSA in the presence of BSA (gel filtration, fluorescence, TLC); assay type: binding; conditions: for Nitrosation of ANSA in the ANSA I+ANSA II+BSA mixture: low dose of *NO (5 molar excess), aerobic
T2 construct: purchased Sigma
Method: ANSA were synthesized from 5-nitronaphthalenesulphoacids and 5-aminonaphthalenesulphoacids (Reahim). TLC of ANSA and their derivatives was carried out on Silica gel 60 plates (Merck) in the hexane/ethyl acetate system. Gel filtration was performed using the Sephadex G25M size-exclusion column (Pharmacia). Fluorescence of ANSA was observed and measured under 365 nm UV light using BioRad Fluor-S MultiImager system.
The present inventors first synthesized two ANSA with opposite hydrophobic properties (FIG. 12B). In the low-hydrophobic ANSA molecule (ANSA I), the R1 group is —CH3 and the R2 group is —H. The highly hydrophobic ANSA (ANSA II) has C3H7 for both R1 and RExperiments were done by mixing an aqueous solution of ANSA with the test protein, and then initiating the nitrosation reaction by the aerobic addition of an aqueous solution of *NO. Two initial concentrations of *NO were used at 25 molar excess over ANSA (high dose) and a 5 molar excess (low dose).

[5] = test system: prostatic carcinoma cell lines DU-145 and PC-3 and normal human fibroblasts (WI-38); assay: MTS cytotoxicity assay (CellTiter 96); conditions: for Cytotoxic effect / cell survival (MTS, in words): 0.1-100 μM, 72 h, presence or absence of *NO; for Effect of the additive on ANSA cytotoxicity: NO trap or general NOS inhibitor added
Method: A second preliminary study used two human hormone-independent prostatic carcinoma cell lines DU-145 and PC-3 (ATCC, Virginia) and normal human fibroblasts (WI-38). The MTS cytotoxicity assay (“CellTiter 96”, Promega) was used to measure the cytotoxicity of several ANSA compounds in the presence or absence of *NO. All compounds tested in vitro were dissolved in DMSO ([…]) and subsequently diluted in the culture medium before treatment of the cultured cells. Tested cells were plated in 96-well plates at a density of 4×10^3 cells/well/200 μL of the proper culture medium and treated with the compounds at concentrations of 0.1-100 μM. In parallel, the cells were treated with 1% of DMSO as control. MTS assay was performed 72 h later according to instructions provided by the manufacturer (Promega). This assay is based on the cellular conversion of the tetrazolium salt, MTS[3-(4,5-dimethylthiazol-2-yl)-5-(3-carboxymethoxyphenyl)-2-(4-sulfophenyl)-2H-tetrazolium, inner salt], into a formazan that is soluble in cell culture medium and is measured at 490 nm directly in 96-well assay plates without additional processing. Absorbency is directly proportional to the number of living cells in culture.
In order to be nitrosated, peptidyl-ANSA must undergo cleavage of the C-terminal amino acid residue to relieve the R3 NH2 group.

T2 sequence (P02769 25-607): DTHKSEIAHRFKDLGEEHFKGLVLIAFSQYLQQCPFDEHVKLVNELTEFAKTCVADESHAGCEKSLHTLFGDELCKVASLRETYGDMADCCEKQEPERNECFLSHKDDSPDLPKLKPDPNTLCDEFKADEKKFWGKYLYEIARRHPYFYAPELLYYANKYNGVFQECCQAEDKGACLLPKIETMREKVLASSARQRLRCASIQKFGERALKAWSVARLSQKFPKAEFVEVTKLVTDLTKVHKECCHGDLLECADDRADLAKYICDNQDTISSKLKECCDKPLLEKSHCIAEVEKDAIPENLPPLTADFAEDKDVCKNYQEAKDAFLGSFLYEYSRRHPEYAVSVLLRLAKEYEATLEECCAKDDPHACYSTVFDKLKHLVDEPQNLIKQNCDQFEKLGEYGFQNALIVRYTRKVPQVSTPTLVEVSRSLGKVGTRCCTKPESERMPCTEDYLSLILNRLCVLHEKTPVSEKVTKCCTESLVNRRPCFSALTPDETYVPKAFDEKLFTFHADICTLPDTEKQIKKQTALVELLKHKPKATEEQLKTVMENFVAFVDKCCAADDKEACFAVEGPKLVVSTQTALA
T1 sequence (P0A8V2 whole entry): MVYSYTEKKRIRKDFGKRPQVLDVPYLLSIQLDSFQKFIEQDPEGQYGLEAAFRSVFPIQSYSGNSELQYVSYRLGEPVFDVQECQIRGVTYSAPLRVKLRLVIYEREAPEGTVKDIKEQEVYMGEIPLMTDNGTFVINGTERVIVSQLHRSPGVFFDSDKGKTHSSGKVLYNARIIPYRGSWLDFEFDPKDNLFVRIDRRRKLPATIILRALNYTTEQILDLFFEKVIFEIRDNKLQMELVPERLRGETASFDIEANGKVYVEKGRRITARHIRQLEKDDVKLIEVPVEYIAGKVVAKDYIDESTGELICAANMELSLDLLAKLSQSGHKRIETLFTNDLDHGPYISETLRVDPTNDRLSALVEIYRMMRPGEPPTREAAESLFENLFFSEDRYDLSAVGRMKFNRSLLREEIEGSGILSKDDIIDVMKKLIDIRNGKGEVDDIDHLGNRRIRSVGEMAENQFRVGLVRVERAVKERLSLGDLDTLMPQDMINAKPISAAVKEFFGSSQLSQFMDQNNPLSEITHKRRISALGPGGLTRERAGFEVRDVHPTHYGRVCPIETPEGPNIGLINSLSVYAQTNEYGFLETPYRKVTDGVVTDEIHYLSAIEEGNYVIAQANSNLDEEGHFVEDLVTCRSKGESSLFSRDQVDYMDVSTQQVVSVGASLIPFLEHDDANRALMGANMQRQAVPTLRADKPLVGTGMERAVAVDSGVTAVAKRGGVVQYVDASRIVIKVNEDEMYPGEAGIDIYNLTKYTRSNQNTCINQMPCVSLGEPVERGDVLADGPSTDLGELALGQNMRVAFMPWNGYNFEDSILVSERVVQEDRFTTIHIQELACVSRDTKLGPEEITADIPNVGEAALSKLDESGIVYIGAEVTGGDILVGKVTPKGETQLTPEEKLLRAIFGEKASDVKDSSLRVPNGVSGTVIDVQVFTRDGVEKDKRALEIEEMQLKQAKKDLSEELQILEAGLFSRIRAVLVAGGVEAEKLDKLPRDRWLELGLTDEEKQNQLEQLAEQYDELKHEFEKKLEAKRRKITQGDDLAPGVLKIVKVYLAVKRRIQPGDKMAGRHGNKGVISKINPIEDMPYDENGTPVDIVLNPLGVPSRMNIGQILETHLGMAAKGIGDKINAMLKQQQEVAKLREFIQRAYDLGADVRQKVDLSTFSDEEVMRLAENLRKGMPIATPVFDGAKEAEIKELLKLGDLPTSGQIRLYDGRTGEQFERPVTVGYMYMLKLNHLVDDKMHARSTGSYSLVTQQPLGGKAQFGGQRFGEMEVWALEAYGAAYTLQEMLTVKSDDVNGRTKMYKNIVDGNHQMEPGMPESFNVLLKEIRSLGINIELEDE
T1 sequence (P0A8T7 whole entry): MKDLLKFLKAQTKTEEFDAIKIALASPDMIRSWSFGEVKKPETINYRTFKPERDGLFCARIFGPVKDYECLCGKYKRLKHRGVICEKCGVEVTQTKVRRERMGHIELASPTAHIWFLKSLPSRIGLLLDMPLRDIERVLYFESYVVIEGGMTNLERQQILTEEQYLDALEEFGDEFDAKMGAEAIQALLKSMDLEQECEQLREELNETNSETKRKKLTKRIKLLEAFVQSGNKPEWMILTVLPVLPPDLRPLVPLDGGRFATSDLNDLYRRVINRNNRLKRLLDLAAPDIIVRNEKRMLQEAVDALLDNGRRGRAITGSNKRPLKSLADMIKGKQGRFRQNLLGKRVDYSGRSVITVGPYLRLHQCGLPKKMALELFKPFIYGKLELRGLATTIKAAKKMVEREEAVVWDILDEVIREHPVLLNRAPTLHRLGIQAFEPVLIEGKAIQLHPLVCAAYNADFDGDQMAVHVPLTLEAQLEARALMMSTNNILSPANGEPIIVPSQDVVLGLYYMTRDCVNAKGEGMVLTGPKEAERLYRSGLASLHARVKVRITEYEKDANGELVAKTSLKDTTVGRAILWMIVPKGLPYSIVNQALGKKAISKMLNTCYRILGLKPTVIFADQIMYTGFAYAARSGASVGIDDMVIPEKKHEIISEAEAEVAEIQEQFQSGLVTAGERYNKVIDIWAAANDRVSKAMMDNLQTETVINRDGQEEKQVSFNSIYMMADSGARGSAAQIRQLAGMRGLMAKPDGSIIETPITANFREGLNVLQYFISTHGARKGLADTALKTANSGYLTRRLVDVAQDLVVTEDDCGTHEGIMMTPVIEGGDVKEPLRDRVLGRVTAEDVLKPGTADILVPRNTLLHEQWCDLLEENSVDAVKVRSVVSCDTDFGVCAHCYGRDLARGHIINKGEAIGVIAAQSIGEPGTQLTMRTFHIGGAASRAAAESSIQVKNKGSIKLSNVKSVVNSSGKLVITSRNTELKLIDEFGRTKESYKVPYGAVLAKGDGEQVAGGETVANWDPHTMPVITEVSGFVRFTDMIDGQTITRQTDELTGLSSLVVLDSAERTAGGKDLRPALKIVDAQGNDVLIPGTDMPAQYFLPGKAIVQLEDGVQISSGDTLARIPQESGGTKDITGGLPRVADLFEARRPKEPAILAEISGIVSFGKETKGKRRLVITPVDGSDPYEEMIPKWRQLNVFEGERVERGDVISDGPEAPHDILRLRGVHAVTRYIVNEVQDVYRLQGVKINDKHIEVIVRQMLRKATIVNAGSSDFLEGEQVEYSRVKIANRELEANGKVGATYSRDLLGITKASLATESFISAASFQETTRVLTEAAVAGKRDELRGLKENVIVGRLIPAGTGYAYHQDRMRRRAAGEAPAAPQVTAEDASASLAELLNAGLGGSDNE
T1 sequence (P0A7Z4 whole entry): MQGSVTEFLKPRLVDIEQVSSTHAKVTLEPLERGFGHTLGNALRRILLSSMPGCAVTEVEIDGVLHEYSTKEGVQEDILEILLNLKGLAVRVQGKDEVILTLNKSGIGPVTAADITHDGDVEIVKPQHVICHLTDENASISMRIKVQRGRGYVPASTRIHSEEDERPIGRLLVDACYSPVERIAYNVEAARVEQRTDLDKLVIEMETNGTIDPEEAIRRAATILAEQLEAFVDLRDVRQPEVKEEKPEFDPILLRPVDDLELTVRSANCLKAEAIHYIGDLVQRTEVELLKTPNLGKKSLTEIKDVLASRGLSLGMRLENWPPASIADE
T1 sequence (P0A800 2-91 partner limits assumed): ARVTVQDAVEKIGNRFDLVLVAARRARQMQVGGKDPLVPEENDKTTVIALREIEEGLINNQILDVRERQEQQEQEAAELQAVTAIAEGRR
T1 sequence (P00579 whole entry partner): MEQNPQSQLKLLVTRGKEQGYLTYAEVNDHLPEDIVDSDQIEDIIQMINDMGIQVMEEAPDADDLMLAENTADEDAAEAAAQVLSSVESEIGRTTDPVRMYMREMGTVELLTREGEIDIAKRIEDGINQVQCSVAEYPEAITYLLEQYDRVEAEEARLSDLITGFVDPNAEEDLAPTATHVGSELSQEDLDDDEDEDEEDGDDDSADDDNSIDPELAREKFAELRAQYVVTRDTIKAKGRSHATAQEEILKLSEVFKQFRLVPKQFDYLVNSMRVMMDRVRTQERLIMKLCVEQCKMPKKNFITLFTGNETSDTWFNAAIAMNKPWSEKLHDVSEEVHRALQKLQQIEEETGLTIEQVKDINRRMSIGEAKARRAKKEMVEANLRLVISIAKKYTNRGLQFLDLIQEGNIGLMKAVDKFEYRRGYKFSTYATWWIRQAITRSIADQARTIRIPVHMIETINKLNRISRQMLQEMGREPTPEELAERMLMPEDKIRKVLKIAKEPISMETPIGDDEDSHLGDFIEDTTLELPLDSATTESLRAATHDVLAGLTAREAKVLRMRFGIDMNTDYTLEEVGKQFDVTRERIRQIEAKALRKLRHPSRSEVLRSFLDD

Structure (SMILES) | CFU, B. subtilis, rich media [1] | CFU, B. subtilis, minimal media [1] | CFU, E. coli, rich media [4] | CFU, E. coli, minimal media [4] | *NO-dependent inactivation of RNAP (transcription) in the presence of ANSA [3] | also measured
[N]=O [*NO, Nitric oxide, reference compound] | ≈10^6 CFU ml^−1 | ≈10^6 CFU ml^−1 | ≈10^6 CFU ml^−1 | ≈10^6 CFU ml^−1 |  | Effect of the additive on the bactericidal effect of ANSA (CFU) [2]: restored the bactericidal effect; Effect on transcription by RNAP, agent alone [3]: partially inhibited transcription
CN(C)S(=O)(=O)c1cccc2c(N)cccc12 [ANSA III] |  |  |  |  | partial negative effect | 
CCCN(CCC)S(=O)(=O)c1cccc2c(N)cccc12 [ANSA II] |  |  |  |  | completely inactivated RNAP | Effect on transcription by RNAP, agent alone [3]: did not affect transcription; Formation of a stable complex with BSA (BSA; gel filtration analysis): able to form a stable complex with BSA; Nitrosation of ANSA in the ANSA I+ANSA II+BSA mixture (BSA): nitrosated
Nc1cccc2c(S(=O)(=O)N3CCOCC3)cccc12 [ANSA IV] |  |  |  |  | partial negative effect | 
CNS(=O)(=O)c1cccc2c(N)cccc12 [ANSA I] | ≈10^7 CFU ml^−1 | ≈10^7 CFU ml^−1 | 10^6-10^7 CFU ml^−1 | ≈10^7 CFU ml^−1 | had no effect on transcription | Cytotoxic effect / cell survival (MTS, in words) [5]: not; Nitrosation of ANSA in the ANSA I+ANSA II+BSA mixture (BSA): intact
CCCCCNS(=O)(=O)c1cccc2c(NC)cccc12 [ANSA VIII] | ≈10^7 CFU ml^−1 | ≈10^7 CFU ml^−1 | ≈10^7 CFU ml^−1 | ≈10^7 CFU ml^−1 |  | Cytotoxic effect / cell survival (MTS, in words) [5]: had no effect on cell survival; Bactericidal effect / cell survival (in words) [2]: had no effect on cell survival
CCCCCNS(=O)(=O)c1cccc2c(NC(=O)C(CCCNC(=N)N)NC(=O)C(CCCNC(=N)N)NC(=O)CNC(=O)CN)cccc12 (stereo not drawn) [ANSA VII] |  |  | 0 CFU ml^−1 |  | unable to enhance inactivation of RNAP | Cytotoxic effect / cell survival (MTS, in words) [5]: strong cytotoxic effect; Bactericidal effect / cell survival (in words) [2]: strongest bactericidal effect
CNc1cccc2c(S(=O)(=O)N(C)C)cccc12 [ANSA VI] |  |  |  |  | unable to enhance inactivation of RNAP | 
CCCCCNS(=O)(=O)c1cccc2c(N)cccc12 [ANSA V] | 10^2-10^3 CFU ml^−1 | 10^2 CFU ml^−1 | 0-20 CFU ml^−1 | ≈10^3 CFU ml^−1 | completely inactivated RNAP | 
COC(=O)[C@@H](N)CCCNC(=N)N[N+](=O)[O-] [L-NAME, reference compound] |  |  |  |  |  | Effect of the additive on ANSA cytotoxicity [5]: decreased the cytotoxicity
O=NO [NO2^−, nitrite, reference compound] |  |  |  |  |  | Effect on transcription by RNAP, agent alone [3]: had no effect
CC1(C)N([O])C(c2ccccc2)=[N+]([O-])C1(C)C [PTIO, 2-phenyl-4,4,5,5-tetramethylimidazoline-1-oxyl-3-oxide, reference compound] |  |  |  |  |  | Effect of the additive on ANSA cytotoxicity [5]: decreased the inhibitory effect; Effect of the additive on the bactericidal effect of ANSA (CFU) [2]: almost completely abolished the inhibitory effect
